Patent publication US20130288897A1, “SYNERGISTIC PESTICIDAL COMPOSITIONS” (Dow AgroSciences LLC, priority 2012, published 2013)
Several values for one entry are separate records, joined by “and”; a condition that tells them apart may be missing. Equal values may be shown once.

System: cotton aphid (CA) Aphis gossypii
Experiment: Cotton aphid track-sprayer test on cotton: Compound A or imidacloprid with Glyphomax Plus (glyphosate) and AMS (Example XV)
Type: in vivo
Procedure: Glyphosate resistant cotton plants (Gossypium hirsutum, cv ‘DP493’) were trimmed to 1 true leaf and infested with mixed stages of cotton aphid (CA) Aphis gossypii 24 h prior to application. Mixed developmental stage CA were infested onto the upper surface of each treated leaf by transferring infested foliage from an insectary colony. Each plant was infested with approximately equal numbers of CA based on visual estimation of aphid density on the infested material. Infested plants were held in the growth chamber (L:D 16:8 and 25° C.). Glyphosate (Glyphomax Plus, Dow AgroSciences, LLC, Indianapolis, Ind.) was mixed with water at a rate equivalent to 32 oz/Ac/20 gallons. […] High rate Compound A concentrations were created by diluting Compound A technical material with acetone to achieve a 10 ppm solution. […] When applied through a track sprayer calibrated to 200 L/Ha these concentrations generated use rates of 0.2, 0.04 and 0.008 g/Ha. […] Nozzle height above the canopy was held constant at ca. 30 cm. Plants were evaluated after 3 days from the time of infestation by counting all live cotton aphids on each plant.
For the purposes of this experiment, the compositions having lower rates of the insecticide were not analyzed. Percent control for all treatments was calculated using the rep average for the untreated plants. […] For all tests, measured efficacy (% Control) data were compared to calculated Colby values (Colby, S. R. 1967. Calculating Synergistic and Antagonistic Responses of Herbicide Combinations. Weeds 15:20-22) using a 2 sided T-test (Minitab). […] The formula used to calculate the Colby value for mixtures of Compound A and either herbicide or AMS was:
The formula was adapted for compositions including Compound A, herbicide and AMS as follows: […]

[1] = 0.2 g insecticide/Ha with Glyphomax Plus 0.0125 ml/ml + AMS 18 mg/ml, Rep 1-5
[2] = 0.2 g insecticide/Ha with Glyphomax Plus 0.0125 ml/ml, Rep 1-5

SMILES	% control Negatives to zero [1]	Calculated Colby values [1]	percent control [1]	% control Negatives to zero [2]	percent control [2]	Calculated Colby values (0.2 g insecticide/Ha with Glyphomax Plus 0.0125 ml/ml, Rep 1-5, expected additive control)	CA Counts (0.2 g insecticide/Ha, no herbicide, no AMS, Rep 1-5, live aphids per plant after 3 days)	percent control (0.2 g insecticide/Ha, no herbicide, no AMS, Rep 1-5, vs rep average of untreated plants)	synergy assessment (measured control vs Colby values) (insecticide with AMS and herbicide (Glyphomax Plus))	synergy assessment (measured control vs Colby values) (insecticide with the herbicide (Glyphomax Plus))
CC(c1ccc(C(F)(F)F)nc1)S(C)(=O)=NC#N (stereo not shown) [Compound A, [1-(6-Trifluoromethylpyridin-3-yl)ethyl](methyl)-oxido-λ^4-sulfanylidenecyanamide]	94.9% and 100.0%	71.7 and 78.5 and 75.1 and 77.5 and 71.8	100.0% and 94.9%	96.2% and 100.0% and 91.7% and 98.1%	100.0% and 91.7% and 98.1% and 96.2%	71.7 and 78.5 and 75.1 and 75.3 and 69.3	24 and 20 and 12 and 15 and 13	71.7% and 78.5% and 75.1% and 75.3% and 69.3%		
O=[N+]([O-])NC1=NCCN1Cc1ccc(Cl)nc1 [Imidacloprid, imidacloprid, reference compound]									not improved compared to imidacloprid alone	not present
